Assay: xn = mol fraction of the nth substance listed
Conditions: 100 kPa, Liquid; for viscosity: Concentric cylinders viscometry; for mass density: Vibrating tube method

CCC=O [propanal] + CCC(C)O
Conditions | mass density [kg/m3] | viscosity [mPa·s]
293.15 K, x1 = 0.0811 | 810.5 | 3.49
293.15 K, x1 = 0.16 | 813.1 | 3.29
293.15 K, x1 = 0.24 | 815.1 | 3.06
293.15 K, x1 = 0.35 | 817 | 2.72
293.15 K, x1 = 0.44 | 817.8 | 2.42
293.15 K, x1 = 0.56 | 817.7 | 2
293.15 K, x1 = 0.6499 | 816.7 | 1.67
293.15 K, x1 = 0.7401 | 814.7 | 1.34
293.15 K, x1 = 0.8501 | 810.8 | 0.92
293.15 K, x1 = 0.9401 | 806.5 | 0.58
293.15 K, x1 = 1 | 802.4 | 0.34
298.15 K, x1 = 0.0811 | 806 | 2.89
298.15 K, x1 = 0.16 | 808.4 | 2.73
298.15 K, x1 = 0.24 | 810.3 | 2.55
298.15 K, x1 = 0.35 | 811.8 | 2.27
298.15 K, x1 = 0.44 | 812.3 | 2.03
298.15 K, x1 = 0.56 | 811.8 | 1.68
298.15 K, x1 = 0.6499 | 810.5 | 1.41
298.15 K, x1 = 0.7401 | 808.4 | 1.14
298.15 K, x1 = 0.8501 | 804.5 | 0.8
298.15 K, x1 = 0.9401 | 800 | 0.52
298.15 K, x1 = 1 | 796.2 | 0.33
303.15 K, x1 = 0.0811 | 801.1 | 2.41
303.15 K, x1 = 0.16 | 803.2 | 2.27
303.15 K, x1 = 0.24 | 804.8 | 2.12
303.15 K, x1 = 0.35 | 806 | 1.89
303.15 K, x1 = 0.44 | 806.5 | 1.69
303.15 K, x1 = 0.56 | 805.7 | 1.41
303.15 K, x1 = 0.6499 | 804.3 | 1.19
303.15 K, x1 = 0.7401 | 802 | 0.97
303.15 K, x1 = 0.8501 | 798 | 0.69
303.15 K, x1 = 0.9401 | 794 | 0.46
303.15 K, x1 = 1 | 790.3 | 0.31
308.15 K, x1 = 0.0811 | 796.4 | 2.02
308.15 K, x1 = 0.16 | 798 | 1.9
308.15 K, x1 = 0.24 | 799.4 | 1.77
308.15 K, x1 = 0.35 | 800.3 | 1.58
308.15 K, x1 = 0.44 | 800.4 | 1.41
308.15 K, x1 = 0.56 | 799.5 | 1.18
308.15 K, x1 = 0.6499 | 798.1 | 1.01
308.15 K, x1 = 0.7401 | 795.9 | 0.82
308.15 K, x1 = 0.8501 | 791.8 | 0.6
308.15 K, x1 = 0.9401 | 788 | 0.42
308.15 K, x1 = 1 | 784.5 | 0.3
313.15 K, x1 = 0.0811 | 791.7 | 1.71
313.15 K, x1 = 0.16 | 793 | 1.61
313.15 K, x1 = 0.24 | 794 | 1.5
313.15 K, x1 = 0.35 | 794.6 | 1.34
313.15 K, x1 = 0.44 | 794.6 | 1.2
313.15 K, x1 = 0.56 | 793.5 | 1.01
313.15 K, x1 = 0.6499 | 792 | 0.86
313.15 K, x1 = 0.7401 | 789.8 | 0.72
313.15 K, x1 = 0.8501 | 786 | 0.53
313.15 K, x1 = 0.9401 | 782.4 | 0.38
313.15 K, x1 = 1 | 779 | 0.28
318.15 K, x1 = 0.0811 | 786.8 | 1.45
318.15 K, x1 = 0.16 | 787.9 | 1.36
318.15 K, x1 = 0.24 | 788.6 | 1.27
318.15 K, x1 = 0.35 | 789.1 | 1.13
318.15 K, x1 = 0.44 | 788.8 | 1.02
318.15 K, x1 = 0.56 | 787.6 | 0.86
318.15 K, x1 = 0.6499 | 786.1 | 0.74
318.15 K, x1 = 0.7401 | 783.8 | 0.62
318.15 K, x1 = 0.8501 | 780 | 0.47
318.15 K, x1 = 0.9401 | 776.5 | 0.35
318.15 K, x1 = 1 | 773.5 | 0.27
323.15 K, x1 = 0.0811 | 781.9 | 1.25
323.15 K, x1 = 0.16 | 782.6 | 1.17
323.15 K, x1 = 0.24 | 783.1 | 1.09
323.15 K, x1 = 0.35 | 783.2 | 0.97
323.15 K, x1 = 0.44 | 782.8 | 0.87
323.15 K, x1 = 0.56 | 781.5 | 0.74
323.15 K, x1 = 0.6499 | 779.8 | 0.64
323.15 K, x1 = 0.7401 | 777.7 | 0.54
323.15 K, x1 = 0.8501 | 774.3 | 0.42
323.15 K, x1 = 0.9401 | 770.9 | 0.32
323.15 K, x1 = 1 | 768.2 | 0.25

— the NIST ThermoML archive (doi:10.1016/j.jct.2017.07.004)
